# Source: ChEMBL document CHEMBL1201862, “PubChem BioAssay data set” (2004)
# Activity calls are given as the source filed them.
# Columns and labels:
# Format in all cases: functional
# [1] = biological target: T1, Short transient receptor potential channel 4 (Mus musculus, UniProt Q9QUQ5); assay: calcium entry via TRPC4 opening agents – cell-based, HEK293 TRPC4/mu-opioid, Fluo-4 calcium, dose response (AID 434937)
# T1 sequence (Q9QUQ5 whole entry): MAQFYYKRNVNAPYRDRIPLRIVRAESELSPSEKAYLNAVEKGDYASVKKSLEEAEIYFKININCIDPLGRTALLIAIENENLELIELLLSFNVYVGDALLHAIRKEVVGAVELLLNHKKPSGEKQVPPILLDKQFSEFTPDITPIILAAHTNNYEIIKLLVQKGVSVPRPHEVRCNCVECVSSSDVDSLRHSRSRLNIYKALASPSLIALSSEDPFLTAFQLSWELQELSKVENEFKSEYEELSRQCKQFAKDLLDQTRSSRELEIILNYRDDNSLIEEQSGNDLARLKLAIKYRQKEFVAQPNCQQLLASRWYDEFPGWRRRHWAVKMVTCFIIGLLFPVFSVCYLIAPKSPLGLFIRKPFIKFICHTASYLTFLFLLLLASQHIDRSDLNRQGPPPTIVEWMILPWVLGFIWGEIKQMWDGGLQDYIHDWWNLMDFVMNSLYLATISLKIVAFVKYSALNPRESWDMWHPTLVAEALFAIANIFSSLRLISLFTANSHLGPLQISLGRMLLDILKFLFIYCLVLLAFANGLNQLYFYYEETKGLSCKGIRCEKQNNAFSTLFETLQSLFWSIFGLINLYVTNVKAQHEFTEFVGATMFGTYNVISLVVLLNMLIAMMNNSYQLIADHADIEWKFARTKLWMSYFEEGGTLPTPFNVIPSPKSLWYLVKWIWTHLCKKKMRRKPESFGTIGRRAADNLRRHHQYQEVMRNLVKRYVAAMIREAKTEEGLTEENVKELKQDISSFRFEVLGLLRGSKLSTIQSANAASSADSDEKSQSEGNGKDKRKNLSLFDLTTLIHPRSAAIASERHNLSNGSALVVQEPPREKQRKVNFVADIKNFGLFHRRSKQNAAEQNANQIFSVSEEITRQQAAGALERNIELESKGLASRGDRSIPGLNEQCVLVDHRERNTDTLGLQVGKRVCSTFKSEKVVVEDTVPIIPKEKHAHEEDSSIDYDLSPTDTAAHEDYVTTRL
# [2] = biological target: T2, Coagulation factor XII (Homo sapiens, UniProt P00748);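 also: activated factor XIIa alpha cleaving a fluorogenic AMC peptide substrate; inhibitor potency from loss of enzyme activity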
# T2 sequence (P00748 whole entry): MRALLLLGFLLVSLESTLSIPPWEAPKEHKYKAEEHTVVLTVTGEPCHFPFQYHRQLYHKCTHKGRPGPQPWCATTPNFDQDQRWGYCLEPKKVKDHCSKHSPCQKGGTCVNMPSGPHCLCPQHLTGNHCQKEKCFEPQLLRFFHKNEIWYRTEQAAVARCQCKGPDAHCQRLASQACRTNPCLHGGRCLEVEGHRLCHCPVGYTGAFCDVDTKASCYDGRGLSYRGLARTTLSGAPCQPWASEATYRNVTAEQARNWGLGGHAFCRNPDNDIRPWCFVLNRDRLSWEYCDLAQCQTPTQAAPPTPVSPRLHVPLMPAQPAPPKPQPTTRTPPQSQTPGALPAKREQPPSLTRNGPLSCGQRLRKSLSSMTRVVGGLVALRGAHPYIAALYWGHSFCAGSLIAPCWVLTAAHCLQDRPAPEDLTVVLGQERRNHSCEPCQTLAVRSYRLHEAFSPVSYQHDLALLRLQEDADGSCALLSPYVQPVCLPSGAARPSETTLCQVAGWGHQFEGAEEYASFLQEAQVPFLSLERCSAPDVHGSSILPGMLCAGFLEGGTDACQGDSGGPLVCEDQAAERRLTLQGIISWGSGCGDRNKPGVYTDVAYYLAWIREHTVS
# [3] = biological target: T3, Kappa-type opioid receptor (Homo sapiens, UniProt P41145); assay: SAR analysis of small molecule antagonists of the kappa opioid receptor via a luminescent beta-arrestin assay - Set 5. [Related pubchem assays (depositor defined):AID1778, AID1785]
# [4] = biological target: T3, Kappa-type opioid receptor; assay: SAR analysis of small molecule antagonists of the kappa opioid receptor via a luminescent beta-arrestin assay - Set 4. [Related pubchem assays (depositor defined):AID1777, AID1778, AID1785, AID1786, AID1966, AID2133, AID2136, AID2285]
# T3 sequence (P41145 whole entry): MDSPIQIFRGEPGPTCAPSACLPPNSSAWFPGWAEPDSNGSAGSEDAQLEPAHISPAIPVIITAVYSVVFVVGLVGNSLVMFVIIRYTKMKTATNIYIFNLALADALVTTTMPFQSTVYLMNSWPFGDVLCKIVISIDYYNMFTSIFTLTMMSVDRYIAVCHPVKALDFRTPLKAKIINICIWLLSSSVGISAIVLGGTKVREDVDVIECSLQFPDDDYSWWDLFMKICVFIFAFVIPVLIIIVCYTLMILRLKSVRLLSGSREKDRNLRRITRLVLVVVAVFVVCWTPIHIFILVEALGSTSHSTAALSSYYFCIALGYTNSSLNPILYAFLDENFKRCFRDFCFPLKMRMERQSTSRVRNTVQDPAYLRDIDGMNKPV
Structure (SMILES),EC50 [1],IC50 [2],also measured
O=C(Cn1c(-c2ccccc2)c[n+]2ccsc12)c1ccc(Br)cc1,0.668 µM (active),–,–
CCCN(CCC)CCCNC(=O)CNC(=O)c1nn(-c2ccc(OC)cc2)c(=O)c2ccccc12,3.76 µM (active),–,–
Cc1c(C(=O)C2=C(O)C(=O)N(CCN3CCOCC3)C2c2cccs2)cnn1-c1ccccc1 (stereo unspecified),–,> 50 µM (inactive),–
COc1cc(NC(=O)c2cc3nc(C4CC4)cc(C(F)(F)F)n3n2)c(OC)cc1Cl,–,> 50 µM (inactive),–
CC(C)N(CCNC(=O)c1ccc(CNS(=O)(=O)Cc2ccccc2)cc1)Cc1ccccc1,–,–,IC50 [3]: 3.5 µM (active); IC50 [4]: 10.3 µM (inactive)
